Usually pIC50 stands for −log10 of the IC50, conventionally taken in molar units. What is called half-life is the time in which the quantity being followed falls by half. The pKd is the negative decadic logarithm of the Kd, by convention in mol/L. As a reminder, the ΔTm is the shift of the melting midpoint relative to a reference. The term TGI denotes the reduction of tumour growth relative to the control group.

Data set [1] addresses T1, Glutaminase kidney isoform, mitochondrial (Homo sapiens, UniProt O94925).
T1 sequence (O94925 whole entry): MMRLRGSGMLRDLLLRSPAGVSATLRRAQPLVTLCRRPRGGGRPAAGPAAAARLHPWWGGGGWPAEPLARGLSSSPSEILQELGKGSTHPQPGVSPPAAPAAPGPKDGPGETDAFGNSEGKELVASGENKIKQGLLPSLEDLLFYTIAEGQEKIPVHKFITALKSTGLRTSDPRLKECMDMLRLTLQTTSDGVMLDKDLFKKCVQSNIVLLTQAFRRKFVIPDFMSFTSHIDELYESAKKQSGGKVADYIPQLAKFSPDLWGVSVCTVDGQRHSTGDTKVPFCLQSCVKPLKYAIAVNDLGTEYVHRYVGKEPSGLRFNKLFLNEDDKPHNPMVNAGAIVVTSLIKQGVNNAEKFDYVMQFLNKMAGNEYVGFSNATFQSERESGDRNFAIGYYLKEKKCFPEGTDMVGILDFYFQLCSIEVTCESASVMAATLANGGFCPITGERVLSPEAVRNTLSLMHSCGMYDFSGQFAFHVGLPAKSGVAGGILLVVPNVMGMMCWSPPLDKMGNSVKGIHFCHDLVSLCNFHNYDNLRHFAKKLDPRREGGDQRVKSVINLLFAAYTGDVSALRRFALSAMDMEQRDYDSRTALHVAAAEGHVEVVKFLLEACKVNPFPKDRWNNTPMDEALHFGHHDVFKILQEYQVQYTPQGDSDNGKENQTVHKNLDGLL
The data set can be described thus: Allosteric inhibition of human GLS1 using glutamine as substrate incubated for 60 mins by NADH/NADPH-based absorbance analysis.

A short description of data set [2]: Metabolic stability in human liver microsomes assessed as intrinsic clearance at 10 uM by LC-MS/MS analysis. In kind it is ADME, Microsome. Conditions: read-out: CLH. For orientation: Liver microsomes are a subcellular fraction often used to study metabolism.
Data set [3] can be described thus: Metabolic stability in human liver microsomes assessed as half life at 10 uM by LC-MS/MS analysis. Type of data set: ADME, Microsome. Conditions: for half-life at 10 µM: liver microsomes.
The nature of data set [4]: Metabolic stability in human plasma assessed as parent compound remaining at 1 uM measured after 2 hrs by LC-MS/MS analysis. To be noted: read-out: Stability. In kind it is ADME, cell-free.
Data set [5] deals with HCT-116. The data set can be described thus: Antiproliferative activity against human HCT-116 cells overexpressing GLS1 assessed as inhibition of cell proliferation measured after 72 hrs by MTT assay. In kind it is functional, cell-based. To be noted: HCT-116, 72 h. (Tetrazolium dyes change colour on reduction, which living cells bring about.)
In the next data set the test system is MDA-MB-436. The data set can be described thus: Antiproliferative activity against human MDA-MB-436 cells overexpressing GLS1 assessed as inhibition of cell proliferation measured after 72 hrs by MTT assay. Type of data set: functional, cell-based. Conditions: MDA-MB-436, 72 h.
Data set [6] has as its target T1, Glutaminase kidney isoform, mitochondrial. As to the kind of experiment: Binding affinity to human GLS1 assessed as dissociation constant by surface plasmon resonance analysis. (In general: SPR reads the build-up and loss of mass on a sensor chip optically.)
The target in data set [7] is T2, Glutaminase kidney isoform, mitochondrial (Homo sapiens) (UniProt O94925).
T2 sequence (whole entry): T1 sequence (O94925 whole entry)
To be noted: filed as negative allosteric modulator.
Description: Binding affinity to human GLS1 assessed as stabilization of protein by measuring change in melting temperature by protein thermal shift assay

For data set [8], the target named is T3, Glutaminase kidney isoform, mitochondrial (Mus musculus, UniProt D3Z7P3).
T3 sequence (D3Z7P3 whole entry): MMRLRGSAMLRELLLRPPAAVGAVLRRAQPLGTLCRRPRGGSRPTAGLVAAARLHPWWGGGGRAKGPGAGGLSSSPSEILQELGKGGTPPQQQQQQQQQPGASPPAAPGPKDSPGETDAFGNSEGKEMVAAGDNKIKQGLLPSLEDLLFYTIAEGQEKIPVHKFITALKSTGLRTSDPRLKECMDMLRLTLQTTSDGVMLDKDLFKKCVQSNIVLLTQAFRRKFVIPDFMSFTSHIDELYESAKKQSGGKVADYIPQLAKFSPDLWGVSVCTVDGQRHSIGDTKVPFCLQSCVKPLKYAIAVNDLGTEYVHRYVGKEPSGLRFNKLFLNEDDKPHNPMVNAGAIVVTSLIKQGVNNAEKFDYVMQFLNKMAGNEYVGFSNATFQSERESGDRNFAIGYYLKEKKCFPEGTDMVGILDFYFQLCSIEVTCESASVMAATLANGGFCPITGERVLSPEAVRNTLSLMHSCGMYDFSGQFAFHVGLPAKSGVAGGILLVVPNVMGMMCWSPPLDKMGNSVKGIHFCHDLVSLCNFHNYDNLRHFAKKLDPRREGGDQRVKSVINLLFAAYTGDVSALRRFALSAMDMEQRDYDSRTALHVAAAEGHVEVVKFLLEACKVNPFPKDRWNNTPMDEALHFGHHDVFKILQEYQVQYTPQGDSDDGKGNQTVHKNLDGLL
The data set can be described thus: Inhibition of GLS1 in mouse kidney assessed as inhibition of glutamate production using glutamine as substrate incubated for 1 hr by coupled assay. Type of data set: tissue-based.

Data set [9] in a line: Metabolic stability in human liver microsomes assessed as parent compound remaining at 10 uM measured after 30 mins by LC-MS/MS analysis. In kind it is ADME, Microsome.
Data set [10] is described as follows: Metabolic stability in human liver microsomes assessed as parent compound remaining at 10 uM measured after 60 mins by LC-MS/MS analysis. Type of data set: ADME, Microsome.
The next data set relates to H22. The data set can be described thus: Antiproliferative activity against mouse H22 cells assessed as inhibition of cell proliferation measured after 72 hrs by MTT assay. Conditions: H22, 72 h. Type of data set: functional, cell-based.
A further data set concerns CT26. The data set can be described thus: Antiproliferative activity against mouse CT26 cells overexpressing GLS1 assessed as inhibition of cell proliferation measured after 72 hrs by MTT assay. Type of data set: functional, cell-based. Conditions: CT26, 72 h.
Data set [11] has as its system HCT-116. The data set can be described thus: Antitumor activity against human HCT-116 cells xenografted in BALB/c SPF mouse assessed as tumor growth inhibition at 100 mg/kg, ip administered BID for 21 days. In kind it is functional. To be noted: time 21 day.
Data set [12] concerns the target T3, Glutaminase kidney isoform, mitochondrial. The data set can be described thus: Inhibition of GLS1 in mouse brain assessed as inhibition of glutamate production using glutamine as substrate incubated for 1 hr by coupled assay. In kind it is tissue-based.
Where [13] appears, read: liver microsomes, read-out: Stability.

pIC50, pKd: −log10 of the molar value.

`CO[C@H](C(=O)Nc1nnc(NC2CCN(c3nnc(NC(=O)CCc4cn(Cc5ccc(C(F)(F)F)cc5)nn4)s3)CC2)s1)c1ccccc1`: the values for the pIC50 (in data set [1]; in the data set with HCT-116 [5]; with MDA-MB-436) were 7.63, 6.52 and 5.96, respectively. Besides, in data set [2], the microsomal CLint at 10 µM was determined as 9.21 µL/min/mg. Moreover, the half-life at 10 µM in [3] worked out at 3.14 h. Further, in data set [4], the remaining at 2 h, 1 µM was 95%.
For `CO[C@H](C(=O)Nc1nnc(NC2CCN(c3nnc(NC(=O)CCc4cn(-c5ccc(C(F)(F)F)cc5)nn4)s3)CC2)s1)c1ccccc1`, the pIC50 in data set [1] was 7.72; with HCT-116 [5] it was 6.80; with MDA-MB-436 it was 6.21. For the same compound, the microsomal CLint at 10 µM in data set [2] was 5.57 µL/min/mg. Besides, the half-life at 10 µM in [3] came to 5.21 h. Besides, the remaining at 2 h, 1 µM in data set [4] is 98%. Also, in data set [6], the pKd was 7.09. Also, the thermal shift (ΔTm) in data set [7] amounted to 15.2 °C.
Regarding `CO[C@@H](C(=O)Nc1nnc(NC2CCN(c3nnc(NC(=O)CCc4cn(CC5=CC=C(C(F)(F)F)CC5)nn4)s3)CC2)s1)c1ccccc1`, the values for the pIC50 (in data set [1]; with HCT-116 [5]; in the data set on MDA-MB-436) were 8.31, 6.46 and 6.08, respectively. Also, the microsomal CLint at 10 µM in [2] was 15.1 µL/min/mg. In addition, in data set [3], the half-life at 10 µM came out at 1.91 h. Also, the remaining at 2 h, 1 µM in data set [4] stood at 91%.
For the compound `O=C(Cc1cccc(OC(F)(F)F)c1)Nc1ccc(CCCCc2nnc(NC(=O)Cc3ccccn3)s2)nn1`, the pIC50 was 7.70 in data set [8]; 6.39 in the data set on MDA-MB-436; 5.87 with H22; 6.38 in the data set with CT26; 7.70 in data set [12]. The microsomal CLint at 10 µM in data set [2] amounted to 19.5 µL/min/mg. In data set [3] (microsomes, 10 µM), the t1/2 was 1.524 h. For the same compound, the remaining at 2 h, 1 µM in data set [4] was 85%. Also, the Stability in data set [9] (microsomes, 0.5 h, 10 µM) is recorded as 98%; in [10] (microsomes, 1 h, 10 µM), 89%. Moreover, the TGI in the data set on HCT-116 [11] is recorded as 50.6%.
As to `O=C(Cc1ccccc1)Nc1nnc(NC2CCN(c3nnc(NC(=O)c4ccn(Cc5ccc(C(F)(F)F)cc5)n4)s3)CC2)s1`, the figures for the pIC50 (in [1]; in the data set on HCT-116 [5]; with MDA-MB-436) were 7.76, 6.92 and 6.28, respectively. Also, the microsomal CLint at 10 µM in [2] is 25.2 µL/min/mg. For the same compound, the half-life at 10 µM in data set [3] worked out at 1.15 h. The remaining at 2 h, 1 µM in data set [4] is 76%.
For the compound `Cc1ccc(Cn2cc(CCC(=O)Nc3ccc(CCCCc4nnc(NC(=O)Cc5ccccn5)s4)nn3)nn2)cc1`, the microsomal CLint at 10 µM in data set [2] was 40.2 µL/min/mg. Moreover, in data set [3], the half-life at 10 µM was 0.655 h. Moreover, the remaining at 2 h, 1 µM in data set [4] was determined as 72%. For the same compound, the remaining at 0.5 h, 10 µM in [9] (setting [13]) turned out to be 56%. In [10] (setting [13]), the remaining at 1 h, 10 µM is 35%.

Source of the values: ChEMBL document CHEMBL5154870, “Discovery of novel glutaminase 1 allosteric inhibitor with 4-piperidinamine linker and aromatic heterocycles” (Eur J Med Chem, 2022).
